Laboratory results published in patent publication US9840478B2 (MERCK SHARP & DOHME CORP., priority 2013, dated 2017).

System: HIV-1 (H9IIIB strain)
Assay: Cell-based HIV infection assay using a reporter (Cell-Based), MT4-GFP cells
Conditions: Human immunodeficiency virus 1, MT4-GFP cells infected with HIV-1 H9IIIB; 50% normal human serum; mean of at least two independent experiments; read-out: Cell-based IP
Outline: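 MT4-GFP cells (HIV LTR-driven GFP) infected 24 h with HIV-1 H9IIIB at low MOI, then washed and plated with compounds in RPMI + 50% normal human serum, 0.4% DMSO final. Green cells counted at 24 and 48 h; R0 = 48 h/24 h ratio, inhibition normalized to DMSO and triple-drug control; IC50 from 4-parameter fit.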

Going from `CC1(C)CC([C@H](c2ccc(Cl)cc2)[C@H](N)C(=O)Nc2cccc(F)c2CC[C@H]2CNCCN2S(=O)(=O)c2ccccc2)CCO1` (stereo partly drawn) [Example 74, (βR)-4-chloro-β-(2,2-dimethyltetrahydro-2H-pyran-4-yl)-N-(3-fluoro-2-{2-[(2S)-1-(phenylsulfonyl)piperazin-2-yl]ethyl}phenyl)-L-phenylalaninamide] to `COc1ccc([C@H](c2ccc(Cl)cc2)[C@H](N)C(=O)Nc2cccc(F)c2CC[C@H]2CNCCN2S(=O)(=O)c2ccccc2)cn1` [Example 67, (βS)-4-chloro-N-(3-fluoro-2-{2-[(2S)-1-(phenylsulfonyl)piperazin-2-yl]ethyl}phenyl)-β-(6-methoxypridin-3-yl)-L-phenylalaninamide], the IC50 falls from 24 nM to 5.8 nM (4.1-fold). The second is the more potent here.

Compared with `COC(=O)N[C@H](C(=O)Nc1cccc(F)c1CC[C@H]1CNCC(COC(C)C)N1S(C)(=O)=O)[C@H](c1cccc(F)c1)c1cccc(Cl)c1` (stereo partly drawn) [Example 222, (βR)-β-(3-chlorophenyl)-3-fluoro-N-(3-fluoro-2-{2-[(2S)-6-[(1-methylethoxy)methyl]-1-(methylsulfonyl)piperazin-2-yl]ethyl}phenyl)-Nα-(methoxycarbonyl)-L-phenylalaninamide], `COC(=O)N[C@H](C(=O)Nc1cccc(F)c1CC[C@H]1CNC[C@@H](C)N1S(=O)(=O)C1CC1)[C@@H](c1ccc(F)cc1)c1cc(F)cc(F)c1` [Example 257, (βS)-N-(2-{2-[(2S,6R)-1-(cyclopropylsulfonyl)-6-methylpiperazin-2-yl]ethyl}-3-fluorophenyl)-β-(3,5-difluorophenyl)-4-fluoro-Nα-(methoxycarbonyl)-L-phenylalaninamide] is 2.8-fold lower in IC50: 76 nM for the first, 27 nM for the second. The second is the more potent here.

`O=C(C[C@@H](c1ccc(F)cc1)c1cc(F)cc(F)c1)Nc1cncc(F)c1CC[C@H]1CNCCN1S(=O)(=O)Cc1ccc(C(F)(F)F)cc1` [Example 310, (3S)-3-(3,5-difluorophenyl)-3-(4-fluorophenyl)-N-(5-fluoro-4-{2-[(2S)-1-{[4-(trifluoromethyl)benzyl]sulfonyl}piperazin-2-yl]ethyl}pyridin-3-yl)propanamide] and `O=C(C[C@@H](c1ccc(F)cc1)c1cc(F)cc(F)c1)Nc1cncc(F)c1CC[C@H]1CNCCN1C(=O)c1ccc2c(c1)OC(F)(F)O2` [Example 345, (3S)-N-[4-(2-{(2S)-1-[(2,2-difluoro-1,3-benzodioxol-5-yl)carbonyl]piperazin-2-yl}ethyl)-5-fluoropyridin-3-yl]-3-(3,5-difluorophenyl)-3-(4-fluorophenyl)propanamide] are within 1.5-fold of each other in IC50: 1700 nM for the first, 1600 nM for the second.

Compared with `COC(=O)N[C@H](C(=O)Nc1cccc(F)c1CC[C@H]1CNC[C@@H](C)N1S(=O)(=O)C1CC1)[C@@H](c1ccc(Cl)cc1)c1ccc(OC)nc1` [Example 153, (βS)-4-chloro-N-(2-{2-[(2S,6R)-1-(cyclopropylsulfonyl)-6-methylpiperazin-2-yl]ethyl}-3-fluorophenyl)-Nα-(methoxycarbonyl)-β-(6-methoxypyridin-3-yl)-L-phenylalaninamide], `COC(=O)N[C@H](C(=O)Nc1cccc(F)c1CC[C@H]1CNC[C@H](C)N1S(=O)(=O)C1CC1)[C@@H](c1ccc(F)cc1)c1cc(F)cc(F)c1` [Example 212, (βS)-N-(2-{2-[(2S,6S)-1-(cyclopropylsulfonyl)-6-methylpiperazin-2-yl]ethyl}-3-fluorophenyl)-β-(3,5-difluorophenyl)-4-fluoro-Nα-(methoxycarbonyl)-L-phenylalaninamide] is 2.2-fold lower in IC50: 28 nM for the first, 13 nM for the second. The second is the more potent here.

Going from `C[C@H]1CNC[C@H](CCc2c(F)cccc2NC(=O)CC(c2ccc(F)cc2)c2ccc(F)cc2)N1S(=O)(=O)c1ccccc1` [Example 92, N-(3-fluoro-2-{2-[(2S,6S)-6-methyl-1-(phenylsulfonyl)piperazin-2-yl]ethyl}phenyl)-3,3-bis(4-fluorophenyl) propanamide] to `COC(=O)N[C@H](C(=O)Nc1cccc(F)c1CC[C@H]1CNC[C@@H](C)N1S(=O)(=O)c1ccccc1)[C@@H](Cc1ccc(F)cc1)c1ccc(Cl)cc1` [Example 196, (βS)-4-chloro-β-(4-fluorobenzyl)-N-(3-fluoro-2-{2-[(2S,6R)-6-methyl-1-(phenylsulfonyl)piperazin-2-yl]ethyl}phenyl)-Nα-(methoxycarbonyl)-L-phenylalaninamide], the IC50 rises from 17 nM to 49 nM (2.9-fold). The first is the more potent here.

Compared with `CC(C)[C@H](c1cccc(Cl)c1)[C@H](N)C(=O)Nc1cccc(F)c1CC[C@H]1CNC[C@@H](C)N1S(=O)(=O)c1ccccc1` [Example 206, (βR)-3-chloro-N-(3-fluoro-2-{2-[(2S,6R)-6-methyl-1-(phenylsulfonyl)piperazin-2-yl]ethyl}phenyl)-β-(1-methylethyl)-L-phenylalaninamide], `C[C@@H]1CNC[C@H](CCc2c(F)cncc2NC(=O)[C@@H](N)[C@@H](c2ccc(Cl)cc2)C2CCOCC2)N1S(=O)(=O)c1ccccc1` [Example 280, (βR)-4-chloro-N-(5-fluoro-4-{2-[(2S,6R)-6-methyl-1-(phenylsulfonyl)piperazin-2-yl]ethyl}pyridin-3-yl)-β-(tetrahydro-2H-pyran-4-yl)-L-phenylalaninamide] is 30-fold lower in IC50: 480 nM for the first, 16 nM for the second. The second is the more potent here.

`CC[C@H]1CNC[C@H](CCc2c(F)cccc2NC(=O)[C@@H](NC(=O)OC)[C@@H](c2ccc(Cl)cc2)C2CCOCC2)N1S(=O)(=O)c1ccccc1` [Example 268, methyl ((1R,2S)-1-(4-chlorophenyl)-3-((2-(2-((2S,6S)-6-ethyl-1-(phenylsulfonyl)piperazin-2-yl)ethyl)-3-fluorophenyl)amino)-3-oxo-1-(tetrahydro-2H-pyran-4-yl)propan-2-yl) carbamate] and `COC(=O)N[C@H](C(=O)Nc1cncc(F)c1CC[C@H]1CNC[C@@H](C)N1S(=O)(=O)c1ccc(Cl)cc1)[C@@H](c1ccc(Cl)cc1)C1CCOCC1` [Example 281, (βR)-4-chloro-N-[4-(2-{(2S,6R)-1-[(4-chlorophenyl)sulfonyl]-6-methylpiperazin-2-yl}ethyl)-5-fluoropyridin-3-yl]-Nα-(methoxycarbonyl)-β-(tetrahydro-2H-pyran-4-yl)-L-phenylalaninamide] are within 1.5-fold of each other in IC50: 14 nM for the first, 13 nM for the second.

`COC(=O)N[C@H](C(=O)Nc1cccc(F)c1CC[C@H]1CNC[C@H](C)N1S(=O)(=O)c1ccc(OC)cc1)[C@@H](Cc1ccc(F)cc1)c1ccc(Cl)cc1` [Example 187, (βS)-4-chloro-β-(4-fluorobenzyl)-N-[3-fluoro-2-(2-{(2S,6S)-1-[(4-methoxyphenyl)sulfonyl]-6-methylpiperazin-2-yl}ethyl)phenyl]-Nα-(methoxycarbonyl)-L-phenylalaninamide] and `COC(=O)N[C@H](C(=O)Nc1cccc(F)c1CC[C@H]1CNC[C@H](C)N1S(=O)(=O)c1ccc(OC(F)(F)F)cc1)[C@@H](c1ccc(F)cc1)c1cc(F)cc(F)c1` [Example 234, (βS)-β-(3,5-difluorophenyl)-4-fluoro-N-(3-fluoro-2-{2-[(2S,6S)-6-methyl-1-{[4-(trifluoromethoxy)phenyl]sulfonyl}piperazin-2-yl]ethyl}phenyl)-Nα-(methoxycarbonyl)-L-phenylalaninamide] are within 1.5-fold of each other in IC50: 35 nM for the first, 49 nM for the second.

First: C[C@H]1CNC[C@H](CCc2c(F)cccc2NC(=O)[C@@H](N)C2(c3cc(F)cc(F)c3)CCOCC2)N1S(=O)(=O)c1ccccc1 [Example 278, (2S)-2-amino-2-[4-(3,5-difluorophenyl)tetrahydro-hydro-2H-pyran-4-yl]-N-(3-fluoro-2-{2-[(2S,6S)-6-methyl-1-(phenylsulfonyl)piperazin-2-yl]ethyl}phenyl) ethanamide]
Second: C[C@H]1CNC[C@H](CCc2c(F)cccc2NC(=O)[C@@H](N)[C@@H](c2ccc(F)cc2)c2cc(F)cc(F)c2)N1S(=O)(=O)c1ccc(OC(F)(F)F)cc1 [Example 214, (βS)-β-(3,5-difluorophenyl)-4-fluoro-N-(3-fluoro-2-{2-[(2S,6S)-6-methyl-1-{[4-(trifluoromethoxy)phenyl]sulfonyl}piperazin-2-yl]ethyl}phenyl)-L-phenylalaninamide]
The IC50 of the first is 3.2-fold higher: 140 nM for the first, 44 nM for the second.

Compared with `N[C@H](C(=O)Nc1cccc(F)c1CC[C@H]1CNCCN1S(=O)(=O)c1ccccc1)[C@@H](c1ccc(Cl)cc1)c1cccc(OC(F)(F)F)c1` [Example 42, (βS)-4-chloro-N-(3-fluoro-2-{2-[(2S)-1-(phenylsulfonyl)piperazin-2-yl]ethyl}phenyl)-β-[3-(trifluoromethoxy)phenyl]-L-phenylalaninamide], `N[C@H](C(=O)Nc1cncc(F)c1CC[C@H]1CNCCN1S(=O)(=O)c1ccccc1)[C@@H](c1ccc(Cl)cc1)c1cc(F)cc(F)c1` [Example 46, (βS)-4-chloro-β-(3,5-difluorophenyl)-N-(5-fluoro-4-{2-[(2S)-1-(phenylsulfonyl)piperazin-2-yl]ethyl}pyridin-3-yl)-L-phenylalaninamide] is 5-fold lower in IC50: 60 nM for the first, 12 nM for the second.

Going from `COC(=O)N[C@H](C(=O)N[C@@H]1CCC[C@H]1CC[C@H]1CNCCN1S(=O)(=O)c1ccccc1)C(c1ccc(F)cc1)c1ccc(F)cc1` [Example 351, Methyl ((S)-1,1-bis(4-fluorophenyl)-3-oxo-3-(((1R,2S)-2-(2-((S)-1-(phenylsulfonyl)piperazin-2-yl)ethyl)cyclopentyl)amino)propan-2-yl)carbamate] to `COC(=O)N[C@H](C(=O)N[C@H]1CCCC[C@@H]1CC[C@H]1CNCCN1S(=O)(=O)c1ccccc1)[C@@H](c1ccc(Cl)cc1)C1CCOCC1` [Example 355, methyl ((1R,2S)-1-(4-chlorophenyl)-3-oxo-3-(((1S,2R)-2-(2-((S)-1-(phenylsulfonyl)piperazin-2-yl)ethyl)cyclohexyl)amino)-1-(tetrahydro-2H-pyran-4-yl)propan-2-yl)carbamate], the IC50 falls from 360 nM to 14 nM (26-fold).

Same assay, conditions: MT4-GFP cells infected with HIV-1 H9IIIB; 50% normal human serum; mean of at least two independent experiments; read-out: Cell-based IP

Compound `COC(=O)NC(C(=O)NC1CC(F)(F)CC1CC[C@H]1CNCCN1S(=O)(=O)c1ccccc1)C(c1ccc(F)cc1)c1ccc(F)cc1` (stereo in doubt) [Example 359, Methyl ((2R)-1-((4,4-difluoro-2-(2-((S)-1-(phenylsulfonyl)piperazin-2-yl)ethyl)cyclopentyl)amino)-3,3-bis(4-fluorophenyl)-1-oxopropan-2-yl)carbamate] has an IC50 of 530 nM.
